# Experimental data reported in publication PMC5863496, “Mesobuthus Venom-Derived Antimicrobial Peptides Possess Intrinsic Multifunctionality and Differential Potential as Drugs” (Frontiers in Microbiology, 2018).
# Ends that are not written are not given here.
# Tests used:
# Experiment in all cases: Inhibition-zone assay (CL)
# Assay type in all cases: cell-based
# [1] = tested on: Streptococcus sanguinis ATCC 1.2497; conditions: SSAN ATCC 1.2497, N.A. = no activity at 0.8 nmol peptide each well
# Procedure: (§1) The antimicrobial activity of seven peptides, including MeuFSPL-1, MeuFSPL-2, Marmelittin, Melittin, Meucin-22, Marcin-22, and MeuTXKβ1, was evaluated by the inhibition-zone assay previously described in our studies (Hultmark, [1998]; Zhu et al., [2012a]; Zhu and Gao, [2014]). Temperatures used were 30 or 37°C for bacteria or 28°C for fungi. Media used were Luria-Bertani (LB) Broth (10 g tryptone, 5 g yeast extract, and 5 g NaCl in 1 l of water) or Nutrient Broth (10 g peptone, 5 g beef extract powder, and 5 g NaCl in 1 l of water) or GYM(Isp2) (4 g yeast extract, 10 g malt extract, 4 g glucose, 2 g CaCO3 in 1 l of water) for bacteria or Potato Dextrose Broth (200 g patato and 20 g glucose in 1 l of water) for fungi. To make plates, 10 μl of microbial culture (~2 × 10^6 bacterial cells or fungal spores/ml) were mixed in 6 ml of medium containing 0.8% agar and poured into Peri dishes of 9.0 cm diameter. Wells with a diameter of 2 mm were punched into the medium, filled with 2 μl of sample each well. In this assay, three different doses of peptides were applied to three independent wells in one standard bacterial plate. After incubation overnight, inhibition zones were measured and used to calculate lethal concentrations (CL), a concentration just sufficient to inhibit bacterial growth (Hultmark, [1998]; Gao et al., [2009]). CL values are calculated from a plot of d^2 against log n, where d is the diameter (in cm) and n is the amount of sample applied in the well (in nmol). The plot is linear and thus CL can be calculated from the slope (k) and the intercept (m) of this plot. The formula used here is CL = 2.93/ak10^m/k, where “a” is the thickness of the bacterial plate and “CL” is in μM.
# [2] = tested on: penicillin-resistant Staphylococcus aureus P1383; conditions: PRSA P1383; inhibition-zone assay; N.A. = no activity at 0.8 nmol peptide each well
# Procedure: as §1
# [3] = tested on: methicillin-sensitive Staphylococcus aureus CGMCC 1.89; conditions: MSSA CGMCC 1.89, N.A. = no activity at 0.8 nmol peptide each well
# Procedure: as §1
# [4] = tested on: Staphylococcus aureus J700; conditions: SA J700, N.A. = no activity at 0.8 nmol peptide each well
# Procedure: as §1
# [5] = tested on: Escherichia coli Am. J23a; conditions: EC Am. J23a, N.A. = no activity at 0.8 nmol peptide each well
# Procedure: as §1
# [6] = tested on: Bacillus subtilis CGMCC 1.2428; conditions: BS CGMCC 1.2428, N.A. = no activity at 0.8 nmol peptide each well
# Procedure: as §1
# [7] = tested on: Streptococcus salivarius ATCC 1.2498; conditions: SSAL ATCC 1.2498, N.A. = no activity at 0.8 nmol peptide each well
# Procedure: as §1
# [8] = tested on: Stenotrophomonas maltophilia CGMCC 1.1788; conditions: SMAL CGMCC 1.1788, N.A. = no activity at 0.8 nmol peptide each well
# Procedure: as §1
# Candida albicans SZ72 = conditions: CA SZ72, 28°C, N.A. = no activity at 0.8 nmol peptide each well
# Procedure: as §1
# [9] = tested on: Staphylococcus aureus J685; conditions: SA J685, N.A. = no activity at 0.8 nmol peptide each well
# Procedure: as §1
# [10] = tested on: Streptococcus mutans ATCC 1.2499; conditions: SM ATCC 1.2499, N.A. = no activity at 0.8 nmol peptide each well
# Procedure: as §1
# [11] = tested on: Escherichia coli Am. J16c; conditions: EC Am. J16c, N.A. = no activity at 0.8 nmol peptide each well
# Procedure: as §1
# [12] = tested on: Staphylococcus aureus J698; conditions: SA J698, N.A. = no activity at 0.8 nmol peptide each well
# Procedure: as §1
# [13] = tested on: penicillin-resistant Staphylococcus epidermidis P1389; conditions: PRSE P1389, N.A. = no activity at 0.8 nmol peptide each well
# Procedure: as §1
# [14] = tested on: methicillin-resistant Staphylococcus aureus P1386; conditions: MRSA P1386, N.A. = no activity at 0.8 nmol peptide each well
# Procedure: as §1
# Escherichia coli D. G2b = conditions: EC D. G2b, N.A. = no activity at 0.8 nmol peptide each well
# Procedure: as §1
# [15] = tested on: Micrococcus luteus CGMCC 1.0290; conditions: ML CGMCC 1.0290, N.A. = no activity at 0.8 nmol peptide each well
# Procedure: as §1
# [16] = tested on: Bacillus megaterium CGMCC 1.0459; conditions: BM CGMCC 1.0459, N.A. = no activity at 0.8 nmol peptide each well
# Procedure: as §1
# [17] = tested on: methicillin-resistant Staphylococcus aureus P1374; conditions: MRSA P1374, N.A. = no activity at 0.8 nmol peptide each well
# Procedure: as §1
# [18] = tested on: Staphylococcus warneri ATCC 1.2824; conditions: SW ATCC 1.2824, N.A. = no activity at 0.8 nmol peptide each well
# Procedure: as §1
# [19] = tested on: Escherichia coli ATCC 25922; conditions: EC ATCC 25922, N.A. = no activity at 0.8 nmol peptide each well
# Procedure: as §1
# [20] = tested on: penicillin-sensitive Staphylococcus epidermidis P1111; conditions: PSSE P1111, N.A. = no activity at 0.8 nmol peptide each well
# Procedure: as §1
# [21] = tested on: methicillin-resistant coagulase-negative Staphylococcus P1369; conditions: MRCNS P1369, N.A. = no activity at 0.8 nmol peptide each well
# Procedure: as §1
# [22] = tested on: Escherichia coli CIP. J14b; conditions: EC CIP. J14b, N.A. = no activity at 0.8 nmol peptide each well
# Procedure: as §1
Substance,Lethal concentration (CL) [1] [µM],Lethal concentration (CL) [2] [µM],Lethal concentration (CL) [3] [µM],Lethal concentration (CL) [4] [µM],Lethal concentration (CL) [5] [µM],Lethal concentration (CL) [6] [µM],Lethal concentration (CL) [7] [µM],Lethal concentration (CL) [8] [µM],Lethal concentration (CL) (Candida albicans SZ72) [µM],Lethal concentration (CL) [9] [µM],Lethal concentration (CL) [10] [µM],Lethal concentration (CL) [11] [µM],Lethal concentration (CL) [12] [µM],Lethal concentration (CL) [13] [µM],Lethal concentration (CL) [14] [µM],Lethal concentration (CL) (Escherichia coli D. G2b) [µM],Lethal concentration (CL) [15] [µM],Lethal concentration (CL) [16] [µM],Lethal concentration (CL) [17] [µM],Lethal concentration (CL) [18] [µM],also measured
FLFSLIPSAISGLISAFK-NH2 [MeuFSPL-1],5.20,2.81,5.27,10.92,25.00,4.74,4.80,1.13,21.82,14.72,4.22,43.66,4.80,7.36,6.24,25.00,2.26,2.10,6.16,2.81,Lethal concentration (CL) [19]: 12.50 µM; Lethal concentration (CL) [20]: 7.36 µM; Lethal concentration (CL) [21]: 8.48 µM
FLFSLIPSAISGLISAFKGRRKRDLN-NH2 [MarMEL],4.70,2.35,4.87,10.86,4.69,3.13,4.70,4.14,6.70,8.41,2.85,7.75,6.24,3.12,8.11,6.24,1.85,2.86,2.60,0.18,Lethal concentration (CL) [22]: 8.41 µM; Lethal concentration (CL) [19]: 6.41 µM; Lethal concentration (CL) [20]: 4.24 µM; Lethal concentration (CL) [21]: 3.01 µM
